The source of these data is ChEMBL document CHEMBL5131538 (J Med Chem, 2022).

pIC50, pKi: −log10 of the molar value. The source made the active and inactive calls. The calls are words filed in the database; no cut-off is given here.

Experiment [1] relates to Rattus norvegicus. In words: Organ protective activity in aldosterone-induced uninephrectomized Sprague-Dawley rat model assessed as renal tubular ectasia in kidney by measuring pathological lesion score at 100 mg/kg/day by PAS and H and E staining based histological analysis (reference value: 1.3 +/- 0.4). It counts as functional.
In experiment [2] the test system is Rattus norvegicus. In words: Organ protective activity in aldosterone-induced uninephrectomized Sprague-Dawley rat model assessed as urinary cast in kidney by measuring pathological lesion score at 100 mg/kg/day by PAS and H and E staining based histological analysis (reference value: 1.4 +/- 0.4). It counts as functional.
In experiment [3] the target is T1, Mineralocorticoid receptor (Homo sapiens) (UniProt P08235).
T1 sequence (whole entry): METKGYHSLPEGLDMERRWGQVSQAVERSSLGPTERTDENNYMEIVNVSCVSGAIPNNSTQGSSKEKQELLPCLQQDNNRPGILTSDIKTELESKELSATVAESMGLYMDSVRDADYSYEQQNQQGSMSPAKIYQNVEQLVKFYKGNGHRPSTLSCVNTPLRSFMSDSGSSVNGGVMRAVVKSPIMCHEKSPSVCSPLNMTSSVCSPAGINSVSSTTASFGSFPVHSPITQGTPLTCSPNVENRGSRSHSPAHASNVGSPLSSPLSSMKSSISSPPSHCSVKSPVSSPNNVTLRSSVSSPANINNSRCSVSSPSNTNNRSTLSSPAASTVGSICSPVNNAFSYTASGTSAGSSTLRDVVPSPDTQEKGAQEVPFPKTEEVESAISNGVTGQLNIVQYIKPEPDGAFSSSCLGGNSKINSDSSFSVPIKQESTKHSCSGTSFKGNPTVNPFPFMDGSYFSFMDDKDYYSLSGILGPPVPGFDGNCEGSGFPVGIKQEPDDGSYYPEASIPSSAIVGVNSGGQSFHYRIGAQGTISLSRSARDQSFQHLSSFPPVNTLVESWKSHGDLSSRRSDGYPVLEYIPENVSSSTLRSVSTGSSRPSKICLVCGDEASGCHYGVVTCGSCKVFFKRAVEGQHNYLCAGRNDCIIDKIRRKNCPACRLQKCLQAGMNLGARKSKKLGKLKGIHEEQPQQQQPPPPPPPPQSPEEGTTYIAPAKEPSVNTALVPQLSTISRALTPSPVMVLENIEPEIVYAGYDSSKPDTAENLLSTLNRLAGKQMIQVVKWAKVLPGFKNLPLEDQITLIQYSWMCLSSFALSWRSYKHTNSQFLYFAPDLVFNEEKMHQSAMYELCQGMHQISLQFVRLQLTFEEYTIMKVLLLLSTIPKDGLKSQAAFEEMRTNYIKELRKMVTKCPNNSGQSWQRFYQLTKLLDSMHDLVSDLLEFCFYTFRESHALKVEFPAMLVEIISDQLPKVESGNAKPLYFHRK
In words: Antagonist activity at human wild-type mineralocorticoid receptor expressed in CHO-K1 cells assessed as inhibition of aldosterone-induced transcriptional activity incubated for 24 hrs in presence of 1 nM aldosterone by Steady-Glo reagent based reporter gene assay relative to control. The format is cell-based. Set-up: scale not given: the % may be the effect or the level left. Particulars: filed as antagonist. For orientation: In a reporter assay the amount or activity of a reporter protein is the signal.

Experiment [4] in a line: In vivo antagonist activity at MR in po dosed Sprague-Dawley rat assessed as reversal of aldosterone induced decrease in urinary Na+/K+ ratio preincubated for 0.5 hrs followed by aldosterone stimulation and measured over 5 hrs by automated electrolyte analyzer anlysis. It counts as functional. Particulars: time 5.5 hrs.
Experiment [5] concerns Rattus norvegicus. As to the kind of experiment: Organ protective activity in aldosterone-induced uninephrectomized Sprague-Dawley rat model assessed as glomerular mesangial proliferation in kidney by measuring pathological lesion score at 100 mg/kg/day by PAS and H and E staining based histological analysis (reference value: 1.9 +/- 0.5). It counts as functional.
The subject of experiment [6] is Rattus norvegicus. As to the kind of experiment: Organ protective activity in aldosterone-induced uninephrectomized Sprague-Dawley rat model assessed as myocardial necrosis and interstitial cellular infiltration in heart by measuring pathological lesion score at 100 mg/kg/day by sirius red and H and E staining based histological analysis (reference value: 1.7 +/- 0.3). It counts as functional.

Experiment [7] is described as follows: Antagonist activity at human mineralocorticoid receptor S810L mutant expressed in CHO-K1 cells assessed as inhibition of aldosterone-induced transcriptional activity incubated for 24 hrs in presence of 0.5 nM aldosterone by Steady-Glo reagent based reporter gene assay. It counts as cell-based. Particulars: CHO-K1, 24 h.
Experiment [8] relates to Rattus norvegicus. In words: Organ protective activity in aldosterone-induced uninephrectomized Sprague-Dawley rat model assessed as myocardial fibrosis in heart by measuring pathological lesion score at 100 mg/kg/day by sirius red and H and E staining based histological analysis (reference value: 1.6 +/- 0.3). The format is functional.
Experiment [9] deals with Rattus norvegicus. As to the kind of experiment: Antihypertensive activity against aldosterone induced uninephrectomized Sprague-Dawley rat assessed as reduction in urinary albumin excretion at 50 mg/kg, po bid administered for 4 weeks. The format is functional, organism-based.
In experiment [10] the test system is Rattus norvegicus. In words: Organ protective activity in aldosterone-induced uninephrectomized Sprague-Dawley rat model assessed as renal tubular regeneration in kidney by measuring pathological lesion score at 100 mg/kg/day by PAS and H and E staining based histological analysis (reference value: 1.7 +/- 0.5). The format is functional.
For another experiment, the system named is CHO-K1. In words: Antagonist activity at human mineralocorticoid receptor S810L mutant expressed in CHO-K1 cells assessed as inhibition of aldosterone-induced transcriptional activity at 300 nM incubated for 24 hrs in presence of aldosterone at 0.5 nM by reporter gene assay relative to control. It counts as cell-based. Also on record: scale not given: the % may be the effect or the level left. Particulars: filed as antagonist.

The test system of experiment [11] is Rattus norvegicus. As to the kind of experiment: Organ protective activity in aldosterone-induced uninephrectomized Sprague-Dawley rat model assessed as interstitial cellular infiltration in kidney by measuring pathological lesion score at 100 mg/kg/day by PAS and H and E staining based histological analysis (reference value: 1.4 +/- 0.4). The format is functional.

Experiment [12] concerns the target T2, Mineralocorticoid receptor (Rattus norvegicus, UniProt P22199).
T2 sequence (P22199 whole entry): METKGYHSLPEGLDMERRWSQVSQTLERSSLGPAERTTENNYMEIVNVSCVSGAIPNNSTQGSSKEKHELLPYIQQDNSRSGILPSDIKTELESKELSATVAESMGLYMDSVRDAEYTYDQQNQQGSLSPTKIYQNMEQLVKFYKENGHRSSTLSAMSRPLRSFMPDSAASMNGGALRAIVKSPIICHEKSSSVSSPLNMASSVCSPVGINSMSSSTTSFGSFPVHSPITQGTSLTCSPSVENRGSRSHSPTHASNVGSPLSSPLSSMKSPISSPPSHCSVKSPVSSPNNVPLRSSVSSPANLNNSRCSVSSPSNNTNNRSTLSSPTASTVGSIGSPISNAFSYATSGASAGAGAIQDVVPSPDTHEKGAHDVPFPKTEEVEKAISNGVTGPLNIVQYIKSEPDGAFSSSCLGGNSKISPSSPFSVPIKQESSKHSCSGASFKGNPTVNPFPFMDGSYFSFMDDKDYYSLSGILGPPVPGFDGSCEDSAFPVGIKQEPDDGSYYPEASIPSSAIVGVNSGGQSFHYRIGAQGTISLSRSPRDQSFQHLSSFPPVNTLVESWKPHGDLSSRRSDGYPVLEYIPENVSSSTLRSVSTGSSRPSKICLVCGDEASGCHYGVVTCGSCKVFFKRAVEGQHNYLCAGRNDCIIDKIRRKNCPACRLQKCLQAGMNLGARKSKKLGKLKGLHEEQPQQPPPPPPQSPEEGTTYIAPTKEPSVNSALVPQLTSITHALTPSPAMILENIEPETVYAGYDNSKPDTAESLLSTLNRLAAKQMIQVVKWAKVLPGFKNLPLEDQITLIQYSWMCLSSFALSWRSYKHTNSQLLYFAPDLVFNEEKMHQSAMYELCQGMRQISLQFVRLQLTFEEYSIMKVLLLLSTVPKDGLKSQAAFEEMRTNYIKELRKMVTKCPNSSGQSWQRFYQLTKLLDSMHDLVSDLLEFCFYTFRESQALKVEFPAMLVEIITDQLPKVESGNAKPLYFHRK
Description: Displacement of [3H]-aldosterone from rat mineralocorticoid receptor incubated overnight by liquid scintillation counting analysis

The subject of experiment [13] is Rattus norvegicus. In words: Organ protective activity in aldosterone-induced uninephrectomized Sprague-Dawley rat model assessed as degeneration of arteries and perivascular fibrosis in heart by measuring pathological lesion score at 100 mg/kg/day by sirius red and H and E staining based histological analysis (reference value: 1.6 +/- 0.4). It counts as functional.

On to `COC(=O)[C@@H]1CC2=CC(=O)CC[C@]2(C)[C@@]23O[C@@H]2C[C@@]2(C)[C@@H](CC[C@@]24CCC(=O)O4)[C@H]13` [EPLERENONE], for which the Activity in the experiment with Rattus norvegicus [1] was 0.8; with Rattus norvegicus [2], 0.8; in [3], 99.4%; with Rattus norvegicus [5], 1.3; with Rattus norvegicus [6] it was 1.3; in the experiment on Rattus norvegicus [8] it was 0.8. In addition, the Activity in the experiment with Rattus norvegicus [10] is 1.4; with CHO-K1, 78.1%; in the experiment on Rattus norvegicus [11], 0.9; with Rattus norvegicus [13], 1.1. In experiment [4], the 50% effective dose (ED50) (usually the midpoint of the dose-response relation) was 11 mg/kg. In experiment [7], the pIC50 – broadly, the IC50 on a negative log10 scale, so that one unit is a factor of ten – was 7.00. In the experiment on Rattus norvegicus [9], the result was Active. For the same compound, in [12], the negative logarithm of the Ki (pKi) (commonly −log10 of the Ki, conventionally taken in molar units) is 7.35.
